From patent publication US12630498B2 (Genzyme Corporation, priority 2019, dated 2026)

Key:
[1] = target: T1, CFTR-mediated transepithelial chloride transport in primary human bronchial epithelial cells from a ΔF508 homozygous CF donor (Homo sapiens, UniProt P13569, DEL508-508); experiment: TECC24 recording of CFTR-mediated transepithelial chloride transport in CF-HBE cells (AUC fold over DMSO); type: cell-based; details: test agent 10 μM, 48 hours incubation, AUC of forskolin-stimulated IEQ relative to DMSO
T1 construct: Primary human bronchial epithelial cells from a ΔF508 homozygous CF donor; host or cells: primary CF-HBE cells, ΔF508 homozygous donor
T1 sequence (P13569 with tags, fused parts or gaps DEL508-508): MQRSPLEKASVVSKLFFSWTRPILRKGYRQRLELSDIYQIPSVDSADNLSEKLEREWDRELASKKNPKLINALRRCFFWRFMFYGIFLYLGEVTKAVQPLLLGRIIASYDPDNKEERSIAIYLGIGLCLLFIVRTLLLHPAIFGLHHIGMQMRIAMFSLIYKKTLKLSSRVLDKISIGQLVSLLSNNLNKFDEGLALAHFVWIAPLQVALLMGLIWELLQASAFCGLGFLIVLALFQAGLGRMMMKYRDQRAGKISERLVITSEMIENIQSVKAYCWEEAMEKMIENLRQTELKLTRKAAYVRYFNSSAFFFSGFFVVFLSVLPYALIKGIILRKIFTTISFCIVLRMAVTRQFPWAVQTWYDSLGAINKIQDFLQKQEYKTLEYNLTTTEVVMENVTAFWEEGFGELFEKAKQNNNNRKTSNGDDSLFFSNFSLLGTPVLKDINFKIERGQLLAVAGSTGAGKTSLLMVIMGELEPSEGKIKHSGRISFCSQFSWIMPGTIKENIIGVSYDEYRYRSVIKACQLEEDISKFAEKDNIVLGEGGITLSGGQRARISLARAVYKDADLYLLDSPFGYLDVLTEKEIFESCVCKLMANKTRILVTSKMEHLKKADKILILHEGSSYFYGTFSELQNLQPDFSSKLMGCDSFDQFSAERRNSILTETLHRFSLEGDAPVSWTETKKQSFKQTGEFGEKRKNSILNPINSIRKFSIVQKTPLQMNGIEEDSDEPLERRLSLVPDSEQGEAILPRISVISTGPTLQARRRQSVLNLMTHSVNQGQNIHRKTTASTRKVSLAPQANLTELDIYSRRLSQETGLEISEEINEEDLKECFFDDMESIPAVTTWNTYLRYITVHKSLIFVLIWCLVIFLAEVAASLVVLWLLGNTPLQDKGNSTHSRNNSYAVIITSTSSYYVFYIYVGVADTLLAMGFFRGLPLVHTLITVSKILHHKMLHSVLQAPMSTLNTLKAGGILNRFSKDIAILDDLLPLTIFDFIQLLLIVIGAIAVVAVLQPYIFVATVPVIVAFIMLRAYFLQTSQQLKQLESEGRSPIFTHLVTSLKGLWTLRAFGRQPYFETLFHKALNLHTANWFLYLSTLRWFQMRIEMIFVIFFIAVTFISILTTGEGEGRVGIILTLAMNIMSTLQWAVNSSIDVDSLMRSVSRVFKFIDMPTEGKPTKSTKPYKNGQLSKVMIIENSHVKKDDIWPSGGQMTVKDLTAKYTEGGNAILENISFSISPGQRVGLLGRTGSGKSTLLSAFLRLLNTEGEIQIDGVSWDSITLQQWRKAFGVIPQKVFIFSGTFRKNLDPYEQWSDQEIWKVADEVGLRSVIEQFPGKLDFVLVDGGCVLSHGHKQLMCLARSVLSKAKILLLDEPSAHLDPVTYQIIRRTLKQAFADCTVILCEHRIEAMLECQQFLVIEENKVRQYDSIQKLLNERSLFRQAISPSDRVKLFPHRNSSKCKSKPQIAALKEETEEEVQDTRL
In short: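 Primary ΔF508/ΔF508 CF-HBE cells on inserts exposed to test agent in IL-13-containing medium for 48 h at 36.5 °C. Current-clamp VT/TEER recording in pH 7.4 HEPES saline with benzamil 10 μM, forskolin 10 μM, then CFTRinh-172 20 μM. AUC of equivalent Cl⁻ current between forskolin and inhibitor, expressed as ratio over vehicle.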

[2] = target: T2, human Cystic Fibrosis Transmembrane Conductance Regulator (CFTR) harboring the ΔF508 mutation (Homo sapiens, UniProt P13569, DEL508-508); experiment: H441 cell ΔF508-CFTR-HRP cell surface assay (Emax and EC50); type: cell-based; details: for Emax: NCI-H441, NA = Not active
T2 construct: expressed in transfected cells; host or cells: H441 carcinoma line (G418-selected)
T2 sequence (P13569 with tags, fused parts or gaps DEL508-508): as above
In short: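 H441 and 41o- bronchial epithelial cells expressing ΔF508-CFTR with an extracellular-loop-4 HRP tag were treated with a 15-point compound series (24.5–0.001 μM) for two nights, H441 at 27° C, 41o- at 37° C with 0.0005 mg/ml doxycycline. Surface HRP luminescence read; % of maximum VX809 signal and EC50 derived.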

| Compound | TECC24 AUC fold over DMSO @10 μM [1] | EC50 [2] [nM] | Emax [2] [%] |
| --- | --- | --- | --- |
| CC(C)(C)C[C@H](NC(=O)c1ccc2cc(F)ccc2c1OCc1ccc(C(F)(F)F)cc1)C(=O)O [Example 198, (S)-2-(6-fluoro-1-((4-(trifluoromethyl)benzyl)oxy)-2-naphthamido)-4,4-dimethylpentanoic Acid] | A (“A” refers to AUC @10 uM >6) | 1500 | 94.4 |
| CC(C)(C)[C@H](NC(=O)c1ccc2ccccc2c1OCC1CCCCC1)C(=O)O [Example 72, (S)-2-(1-(cyclohexylmethoxy)-2-naphthamido)-3,3-dimethylbutanoic Acid] | C (“C” refers to AUC @10 uM <4) | 3700 | 144 |
| CCC1([C@H](NC(=O)c2ccc3ccc(Cl)cc3c2OCc2ccc(OC(F)(F)F)cc2)C(=O)O)CCCC1 [Example 253, (2S)-2-[[7-chloro-1-[[4-(trifluoromethoxy)phenyl]methoxy]naphthalene-2-carbonyl]amino]-2-(1-ethylcyclopentyl)acetic Acid] | A (“A” refers to AUC @10 uM >6) |  | 239 |
| O=C(N[C@H](C(=O)O)C1Cc2ccccc2C1)c1ccc2ccccc2c1OCc1ccc(C(F)(F)F)cc1 [Example 143, (S)-2-(2,3-dihydro-1H-inden-2-yl)-2-(1-((4-(trifluoromethyl)benzyl)oxy)-2-naphthamido)acetic Acid] | B (“B” refers to AUC @10 uM between 4-6) | 1900 | 135 |
| CC(C)(C)C[C@H](NC(=O)c1ccc2ccccc2c1OC[C@H]1CC[C@H](C(F)(F)F)CC1)C(=O)O [Example 179, (S)-4,4-dimethyl-2-(1-(((1r,4S)-4-(trifluoromethyl)cyclohexyl)methoxy)-2-naphthamido)pentanoic Acid] | C (“C” refers to AUC @10 uM <4) | 3400 | 103 |
| CC(C)(SC1CCCC1)[C@H](NC(=O)c1ccc2ccccc2c1OCC1CCCCC1)C(=O)O [Example 170, (R)-2-(1-(cyclohexylmethoxy)-2-naphthamido)-3-(cyclopentylthio)-3-methylbutanoic Acid] | C (“C” refers to AUC @10 uM <4) | 5000 | 143 |
| O=C(N[C@H](C(=O)O)C12CC(C(F)(F)F)(C1)C2)c1ccc2ccccc2c1OCc1ccc(C(F)(F)F)cc1 [Example 13, (S)-2-(1-((4-(trifluoromethyl)benzyl)oxy)-2-naphthamido)-2-(3-(trifluoromethyl)bicyclo[1.1.1]pentan-1-yl)acetic Acid] | C (“C” refers to AUC @10 uM <4) | 1200 | 81.3 |
| CC(C)(SCC1CC1(F)F)[C@H](NC(=O)c1ccc2ccccc2c1OCC1CCCCC1)C(=O)O (stereo partly drawn) [Example 165, (2R)-2-(1-(cyclohexylmethoxy)-2-naphthamido)-3-(((2,2-difluorocyclopropyl)methyl)thio)-3-methylbutanoic Acid] | C (“C” refers to AUC @10 uM <4) | 3400 | 113 |
| CC(C)(SC1CC2CCC1C2)[C@H](NC(=O)c1ccc2ccccc2c1OCC1CCCCC1)C(=O)O (some centres unmarked) [Example 175] | C (“C” refers to AUC @10 uM <4) | 3000 | 152 |

Results, then the molecule that gave them:

| TECC24 AUC fold over DMSO @10 μM [1] | EC50 [2] [nM] | Emax [2] [%] | Compound |
| --- | --- | --- | --- |
| C (“C” refers to AUC @10 uM <4) | 800 | 100 | CC(C)(c1ccccc1)[C@H](NC(=O)c1ccc2ccccc2c1OCc1ccc(SC(F)(F)F)cc1)C(=O)O [Example 5, (S)-3-methyl-3-phenyl-2-(1-((4-((trifluoromethyl)thio)benzyl)oxy)-2-naphthamido)butanoic Acid] |
| A (“A” refers to AUC @10 uM >6) | 600 | 299 | COc1ccc2ccc(C(=O)N[C@H](C(=O)O)C(C)(C)C)c(OCc3ccc(OC(F)(F)F)cc3)c2c1 [Example 310, (S)-2-(7-methoxy-1-((4-(trifluoromethoxy)benzyl)oxy)-2-naphthamido)-3,3-dimethylbutanoic Acid] |
| C (“C” refers to AUC @10 uM <4) | 1200 | 51.4 | O=C(N[C@H](C(=O)O)C1CCCC1)c1ccc2cc(F)ccc2c1OCc1ccc(SC(F)(F)F)cc1 [Example 116, (S)-2-cyclopentyl-2-(6-fluoro-1-((4-((trifluoromethyl)thio)benzyl)oxy)-2-naphthamido)acetic Acid] |
| C (“C” refers to AUC @10 uM <4) | 400 | 195 | CC1(C(NC(=O)c2ccc3ccccc3c2OCc2ccc(C(F)(F)F)cc2)C(=O)O)CCCCC1 (centres unmarked) [Example 80, 2-(1-methylcyclohexyl)-2-(1-((4-(trifluoromethyl)benzyl)oxy)-2-naphthamido)acetic Acid] |
| C (“C” refers to AUC @10 uM <4) | 800 | 272 | CC(C)(C)[C@H](NC(=O)c1ccc2ccccc2c1OCc1ccc(C(F)(F)F)cc1F)C(=O)O [Example 70, (S)-2-(1-((2-fluoro-4-(trifluoromethyl)benzyl)oxy)-2-naphthamido)-3,3-dimethylbutanoic Acid] |
| A (“A” refers to AUC @10 uM >6) | 300 | 235 | CC(C)(C)[C@H](NC(=O)c1ccc2ccc(F)cc2c1OCc1ccc(OC(F)(F)F)cc1)C(=O)O [Example 239, (S)-2-(7-fluoro-1-((4-(trifluoromethoxy)benzyl)oxy)-2-naphthamido)-3,3-dimethyl Butanoic Acid] |
| A (“A” refers to AUC @10 uM >6) | 400 | 260 | CCCC(C)(CC)[C@H](NC(=O)c1ccc2ccc(F)cc2c1OCc1ccc(C(F)(F)F)cc1)C(=O)O (stereo partly drawn) [Example 291, (2S)-3-ethyl-2-(7-fluoro-1-((4-(trifluoromethyl)benzyl)oxy)-2-naphthamido)-3-methylhexanoic Acid] |
| A (“A” refers to AUC @10 uM >6) | 100 | 296 | CC(C)(C)[C@H](NC(=O)c1ccc2ccc(Br)cc2c1OCc1ccc(C(F)(F)F)cc1)C(=O)O [Example 256, (2S)-2-[[7-bromo-1-[[4-(trifluoromethyl)phenyl]methoxy]naphthalene-2-carbonyl]amino]-3,3-dimethyl-butanoic Acid] |
| B (“B” refers to AUC @10 uM between 4-6) | 800 | 157 | CC(C)(SC1CCCC1)[C@H](NC(=O)c1ccc2ccccc2c1OCc1ccc(C(F)(F)F)cc1)C(=O)O [Example 168, (R)-3-(cyclopentylthio)-3-methyl-2-(1-((4-(trifluoromethyl)benzyl)oxy)-2-naphthamido)butanoic Acid] |
| C (“C” refers to AUC @10 uM <4) | 800 | 122 | O=C(NC(C(=O)O)C1(C(F)(F)F)CC1)c1ccc2ccc(F)cc2c1OCc1ccc(OC(F)(F)F)cc1 (centres unmarked) [Example 240, 2-(7-fluoro-1-((4-(trifluoromethoxy)benzyl)oxy)-2-naphthamido)-2-(1-(trifluoromethyl)cyclopropyl)acetic Acid] |
| C (“C” refers to AUC @10 uM <4) | 800 | 101 | O=C(N[C@H](C(=O)O)C(c1ccccc1)c1ccccc1)c1ccc2cc(F)ccc2c1OCC1CCCCC1 [Example 203] |
